Consider 1 compound from patent publication US20050049282A1, “Process” (priority 2001, published 2005).

Series [1] in a line: Stability of omeprazole in alcoholic solution under chromatographic conditions. It is filed as physicochemical. The note with it: methanol with addition of 0.1% diethylamine. The text has this: It has previously been reported that alcoholic solution of omeprazole is not stable in room temperature and in daylight. There is thus a risk that one or several decomposition products might co-elute with one of the enantiomers.

For series [2] the following is noted: room temperature and daylight; cited from earlier work.

As for `COc1ccc2[nH]c([S+]([O-])Cc3ncc(C)c(OC)c3C)nc2c1` (racemic) [omeprazole, 5-methoxy-2-[[(4-methoxy-3,5-dimethyl-2-pyridinyl)methyl]sulfinyl]-1H-benzimidazole], the “stability of solution in methanol” value in series [1] is reported as “stabilizes a solution of omeprazole in methanol to a sufficient degree”. Also, in series [2], the “stability of alcoholic solution” value was “not stable”.
